Results as given in patent US7638554B2, “Flavanoids as chemotherapeutic, chemopreventive, and antiangiogenic agents” (SRI International, priority 2002, dated 2009).
Where two headings read alike, the source gives them in different places.

How the values were obtained:
[1] = system: colon cancer cell line HCT-15; experiment: Growth inhibition, sulforhodamine-based protein determination, HCT-15; assay type: cell-based; conditions: Homo sapiens, HCT-15, 144 h; continuous exposure six days
Procedure: (§1) The novel compound SR 13179 was assayed for its ability to inhibit growth in several cancer cell lines. The cell lines studied included breast cancer cell line MCF-7 (ER+); prostate cancer cell lines LNCaP, PC3, and DU145; lung cancer cell line A427; ovarian cancer cell lines IGROV1, OVCAR-3, OVCAR-4, OVCAR-5, OVCAR-8, and SK-OV-3; and colon cancer cell lines COLO 205, HCC-2998, HCT-116, HCT-15, HT29, KM12, AND SW-620.
(§2) The growth assays for the breast cancer cell lines were conducted according to the method of Example 16. For the other cell lines, each assay was conducted with continuous exposure to the test compound at four log concentrations for six days, using a sulforhodamine-based protein determination to measure growth inhibition.

[2] = system: LNCaP human prostate cancer cells; experiment: Cell cycle arrest in LNCaP cells (Hoechst 33258 nuclear morphology, flow cytometry); assay type: cell-based
Procedure: To determine whether SR 13179 exerts its antiproliferative activity by perturbing the cell cycle, the nuclear morphology of LNCaP cells was visualized after treatment with SR 13179. The cells were exposed to the compound for 28 h at concentrations of either 0.5 μM or 1 μM and then stained with the nuclear dye Hoechst 33258.
To investigate the mitotic arrest in more detail, flow cytometry was used to study the effect of SR 13179 on cell cycle progression for LNCaP cells.

[3] = system: human umbilical vein endothelial cells (HUVECs); experiment: Growth inhibition of HUVECs, MTT assay; assay type: cell-based; conditions: HUVEC, read-out: concentration to inhibit growth by 50%, HUVECs
Procedure: Angiogenesis depends upon the proliferation of vascular endothelial cells. To determine the potential antiangiogenic activity of SR 13179, the compound's ability to inhibit the proliferation of these cells was assayed. Apoptosis was then investigated as a possible mechanism for the antiproliferative activity.
Human vascular endothelial cells taken from umbilical veins (HUVECs) were obtained from Clonetics Corporation (San Diego, Calif.). Growth inhibition was measured quantitatively using the MTT assay as described by Mosmann et al., cited in the previous example.
The concentration to inhibit growth by 50% was 0.37 μM.

[4] = system: ovarian cancer cell line OVCAR-3; experiment: Growth inhibition, sulforhodamine-based protein determination, OVCAR-3; assay type: cell-based; conditions: Homo sapiens, OVCAR-3, 144 h; continuous exposure six days
Procedure: as §1, §2

[5] = system: prostate cancer cell line LNCaP; experiment: Growth inhibition, sulforhodamine-based protein determination, LNCaP; assay type: cell-based; conditions: Homo sapiens
Procedure: as §1, §2
The procedure of Example 20 was used to evaluate the growth inhibitory effect of various compounds of the invention on LNCaP cells.

[6] = system: SKOV-3 human ovarian cancer xenografts; experiment: SKOV-3 adriamycin- and cisplatin-resistant human ovarian cancer xenografts in nude mice; assay type: in vivo, female BALB/c mice
Procedure: The in vivo antitumor activity of SR 13179 against the highly aggressive adriamycin and cisplatin-resistant human ovarian cancer cell line SKOV-3 was evaluated in nude mice xenografts. The experiment was carried out as follows: Female BALB/c mice were inoculated subcutaneously with the human ovarian cancer SKOV-3 cells on both flanks. SR 13179 was administered to the mice on the same day as tumor cell inoculation, via two routes of administration, orally and intraperitoneally, in three doses of 10 mg/kg, 30 mg/kg and 100 mg/kg, once a day as a suspension in 0.5% hydroxypropylcellulose. Body weights and tumor volumes were measured twice a week. Results. […] The body weights of the treated mice were unaffected at all doses studied.

[7] = system: colon cancer cell line HT29; experiment: Growth inhibition, sulforhodamine-based protein determination, HT29; assay type: cell-based; conditions: Homo sapiens, HT-29, 144 h; continuous exposure six days
Procedure: as §1, §2

[8] = system: MDA-MB-231 breast cancer cells; experiment: Boyden-chamber Matrigel invasion/migration assay, MDA-MB-231; assay type: cell-based, human
Procedure: Cell Culture. MCF-10CA1a cells were cultured in Dulbecco's Modified Eagle Medium (DMEM) supplemented with 5% bovine serum, 2 mM glutamine and 1 mM non-essential amino acids. MDA-MB231 cells were grown in DMEM supplemented with 5% bovine serum. Cells were routinely maintained in a 5% CO2 incubator at 37° C.
General Procedure for Invasion Assay. MCF 10-CA1a or MDA-MB-231 breast cancer cells were treated with 1 or 5 μM of the compound being tested for 8 h. Cells were removed by trypsinizing and tested for their invasiveness by Boyden-chamber invasion assay. In the in vitro invasion/migration assays, a standard Matrigel-based assay, according to the manufacturer's (Becton-Dickinson) protocol, was used. Rehydrated Matrigel and control inserts were added to Falcon TC companion plates containing human fibronectin (30 μg/ml) as chemoattractant. Cellular suspensions (2×10^4 cells/0.5 ml) were added to individual wells of 24-well chambers (containing either control or Matrigel inserts), and the plates incubated (37° C., 5% CO2) in the presence of the compound being tested or vehicle for an additional 16-18 h. Non-invading or non-migrating cells were removed by scraping the top surfaces of the Matrigel and control inserts, respectively. The invading (or migrating) cells (on the bottom surface) were fixed (3.7% formaldehyde) and stained with Accustain (Sigma). The percent invasion was calculated as mean number of invading cells/the mean number of cells migrating through a control membrane×100.
The in vitro invasion through Matrigel was studied for two human breast cancer lines: MCF-10CA1a, a highly metastatic ER^+ line and MDA-MB-231, an ER^− line. […] At this concentration, SR13179 inhibited invasion of MDA-MB-231 by about 30% (and by 70% at 5 μM). To rule out a cytotoxic effect in the inhibition of invasion, a concurrent cytotoxicity assay was carried out and the number of viable cells was determined by MTT assay. There was less than 5% decrease in MDA-MB-231 cell viability at 5 μM concentration of SR13179 at 22 h. In the same experiment, a motility experiment was conducted, showing that cell migration was inhibited by about 20%.

COc1cc(C2CC(O)c3ccc4ccccc4c3O2)cc(OC)c1OC (stereo not shown) [SR 13179, 2-(3,4,5-trimethoxyphenyl)-3,4-dihydro-2H-benzo[h]chromen-4-ol]
IC50 [1]: 0.27 µM | nuclear morphology (Hoechst 33258) ([2]; 0.5 μM or 1 μM, 28 h): chromatin condensation characteristic of a prometaphase arrest | G2/M fraction compared with the control ([2]; 2 μM and greater, 24 h, flow cytometry): two-fold increase | IC50 [3]: 0.37 µM | IC50 [4]: 0.18 µM | IC50 ([5]; 144 h, continuous exposure six days, read-out: IC50, growth inhibition, LNCaP): 0.21 µM | IC50 ([5]; Table 5, read-out: Growth Inhibition (IC50), LNCaP cells): 0.21 µM | tumors smaller than untreated control ([6]; Day 10, oral and i.p., 10, 30 and 100 mg/kg once a day): about 50% | body weights of the treated mice ([6]; all doses studied (10, 30, 100 mg/kg; oral and i.p.)): unaffected | tumor growth compared to untreated control ([6]; duration of the four-week study, oral and i.p.): significantly inhibited | IC50 [7]: 0.43 µM | Invasion (%) ([8]; 1 μM): 60% | Invasion (%) ([8]; 5 μM): 25% | inhibition at 1 µM ([8]; Homo sapiens, MDA-MB-231, 1 μM): ~30% | inhibition at 5 µM ([8]; Homo sapiens, MDA-MB-231, 5 μM): 70% | inhibition of cell migration (motility experiment) ([8]; same experiment as the cytotoxicity assay): about 20%
